Like-named read-outs stand apart in the source and are kept apart here.
Experiments:
Assay in all cases: Kinase panel
Type in all cases: biochemical
ASK1/MAP3K5 = ASK1/MAP3K5 (Homo sapiens, UniProt Q99683); conditions: ASK1/MAP3K5, 1 µM; read-out: residual enzyme activity
How it was run: (§1)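 Single-point screen at 1 µM in a biochemical kinase panel; readout is % residual enzyme activity; hit cut-off ≤40% remaining (≥60% inhibited).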

AURORA B = AURORA B (Homo sapiens, UniProt Q96GD4); conditions: read-out: residual enzyme activity
How it was run: as §1

BRSK2 = BRSK2 (Homo sapiens, UniProt Q8IWQ3); conditions: BRSK2, 1 µM; read-out: residual enzyme activity
How it was run: as §1

C-MER = C-MER (Homo sapiens, UniProt Q12866); conditions: read-out: residual enzyme activity
How it was run: as §1

C-MET = C-MET (Homo sapiens, UniProt P08581); conditions: read-out: residual enzyme activity
How it was run: as §1

CDK1/CYCLIN A = CDK1/CYCLIN A (Homo sapiens, UniProt P06493); conditions: read-out: residual enzyme activity
How it was run: as §1

CDK2/CYCLIN A = CDK2/CYCLIN A (Homo sapiens, UniProt P24941); conditions: read-out: residual enzyme activity
How it was run: as §1

CDK3/CYCLIN E2 = CDK3/CYCLIN E2 (Homo sapiens, UniProt Q00526); conditions: CDK3/cyclin E2, 1 µM; read-out: residual enzyme activity
How it was run: as §1

CDK6/CYCLIN D3 = CDK6/CYCLIN D3 (Homo sapiens, UniProt Q00534); conditions: CDK6/cyclin D3, 1 µM; read-out: residual enzyme activity
How it was run: as §1

CDK9/CYCLIN K = CDK9/CYCLIN K (Homo sapiens, UniProt P50750); conditions: read-out: residual enzyme activity
How it was run: as §1

CDK9/CYCLIN T2 = CDK9/CYCLIN T2 (Homo sapiens, UniProt P50750); conditions: CDK9/cyclin T2, 1 µM; read-out: residual enzyme activity
How it was run: as §1

CLK4 = CLK4 (Homo sapiens, UniProt Q9HAZ1); conditions: CLK4, 1 µM; read-out: residual enzyme activity
How it was run: as §1

DDR1 = DDR1 (Homo sapiens, UniProt Q08345); conditions: DDR1, 1 µM; read-out: residual enzyme activity
How it was run: as §1

DYRK1B = DYRK1B (Homo sapiens, UniProt Q9Y463); conditions: read-out: residual enzyme activity
How it was run: as §1

EPHA6 = EPHA6 (Homo sapiens, UniProt Q9UF33); conditions: EPHA6, 1 µM; read-out: residual enzyme activity
How it was run: as §1

ERBB2/HER2 = ERBB2/HER2 (Homo sapiens, UniProt P04626); conditions: ERBB2/HER2, 1 µM; read-out: residual enzyme activity
How it was run: as §1

GRK4 = GRK4 (Homo sapiens, UniProt P32298); conditions: GRK4, 1 µM; read-out: residual enzyme activity
How it was run: as §1

HIPK2 = HIPK2 (Homo sapiens, UniProt Q9H2X6); conditions: HIPK2, 1 µM; read-out: residual enzyme activity
How it was run: as §1

LYN B = LYN B (Homo sapiens, UniProt P07948); conditions: read-out: residual enzyme activity
How it was run: as §1

MARK1 = MARK1 (Homo sapiens, UniProt Q9P0L2); conditions: MARK1, 1 µM; read-out: residual enzyme activity
How it was run: as §1

MLK3/MAP3K11 = MLK3/MAP3K11 (Homo sapiens, UniProt Q16584); conditions: MLK3/MAP3K11, 1 µM; read-out: residual enzyme activity
How it was run: as §1

MYO3B = MYO3B (Homo sapiens, UniProt Q8WXR4); conditions: read-out: residual enzyme activity
How it was run: as §1

OSR1/OXSR1 = OSR1/OXSR1 (Homo sapiens, UniProt O95747); conditions: OSR1/OXSR1, 1 µM; read-out: residual enzyme activity
How it was run: as §1

PAK3 = PAK3 (Homo sapiens, UniProt O75914); conditions: PAK3, 1 µM; read-out: residual enzyme activity
How it was run: as §1

PKCB2 = PKCB2 (Homo sapiens, UniProt P05771); conditions: PKCb2, 1 µM; read-out: residual enzyme activity
How it was run: as §1

SGK3/SGKL = SGK3/SGKL (Homo sapiens, UniProt Q96BR1); conditions: read-out: residual enzyme activity
How it was run: as §1

SSTK/TSSK6 = SSTK/TSSK6 (Homo sapiens, UniProt Q9BXA6); conditions: SSTK/TSSK6, 1 µM; read-out: residual enzyme activity
How it was run: as §1

STK38L/NDR2 = STK38L/NDR2 (Homo sapiens, UniProt Q9Y2H1); conditions: STK38L/NDR2, 1 µM; read-out: residual enzyme activity
How it was run: as §1

TIE2/TEK = TIE2/TEK (Homo sapiens, UniProt Q02763); conditions: read-out: residual enzyme activity
How it was run: as §1

TSSK2 = TSSK2 (Homo sapiens, UniProt Q96PF2); conditions: TSSK2, 1 µM; read-out: residual enzyme activity
How it was run: as §1

ULK1 = ULK1 (Homo sapiens, UniProt O75385); conditions: ULK1, 1 µM; read-out: residual enzyme activity
How it was run: as §1

WNK1 = WNK1 (Homo sapiens, UniProt Q9H4A3); conditions: WNK1, 1 µM; read-out: residual enzyme activity
How it was run: as §1

WNK2 = WNK2 (Homo sapiens, UniProt Q9Y3S1); conditions: WNK2, 1 µM; read-out: residual enzyme activity
How it was run: as §1

Chain of WNK1 (Q9H4A3 whole entry, species assumed): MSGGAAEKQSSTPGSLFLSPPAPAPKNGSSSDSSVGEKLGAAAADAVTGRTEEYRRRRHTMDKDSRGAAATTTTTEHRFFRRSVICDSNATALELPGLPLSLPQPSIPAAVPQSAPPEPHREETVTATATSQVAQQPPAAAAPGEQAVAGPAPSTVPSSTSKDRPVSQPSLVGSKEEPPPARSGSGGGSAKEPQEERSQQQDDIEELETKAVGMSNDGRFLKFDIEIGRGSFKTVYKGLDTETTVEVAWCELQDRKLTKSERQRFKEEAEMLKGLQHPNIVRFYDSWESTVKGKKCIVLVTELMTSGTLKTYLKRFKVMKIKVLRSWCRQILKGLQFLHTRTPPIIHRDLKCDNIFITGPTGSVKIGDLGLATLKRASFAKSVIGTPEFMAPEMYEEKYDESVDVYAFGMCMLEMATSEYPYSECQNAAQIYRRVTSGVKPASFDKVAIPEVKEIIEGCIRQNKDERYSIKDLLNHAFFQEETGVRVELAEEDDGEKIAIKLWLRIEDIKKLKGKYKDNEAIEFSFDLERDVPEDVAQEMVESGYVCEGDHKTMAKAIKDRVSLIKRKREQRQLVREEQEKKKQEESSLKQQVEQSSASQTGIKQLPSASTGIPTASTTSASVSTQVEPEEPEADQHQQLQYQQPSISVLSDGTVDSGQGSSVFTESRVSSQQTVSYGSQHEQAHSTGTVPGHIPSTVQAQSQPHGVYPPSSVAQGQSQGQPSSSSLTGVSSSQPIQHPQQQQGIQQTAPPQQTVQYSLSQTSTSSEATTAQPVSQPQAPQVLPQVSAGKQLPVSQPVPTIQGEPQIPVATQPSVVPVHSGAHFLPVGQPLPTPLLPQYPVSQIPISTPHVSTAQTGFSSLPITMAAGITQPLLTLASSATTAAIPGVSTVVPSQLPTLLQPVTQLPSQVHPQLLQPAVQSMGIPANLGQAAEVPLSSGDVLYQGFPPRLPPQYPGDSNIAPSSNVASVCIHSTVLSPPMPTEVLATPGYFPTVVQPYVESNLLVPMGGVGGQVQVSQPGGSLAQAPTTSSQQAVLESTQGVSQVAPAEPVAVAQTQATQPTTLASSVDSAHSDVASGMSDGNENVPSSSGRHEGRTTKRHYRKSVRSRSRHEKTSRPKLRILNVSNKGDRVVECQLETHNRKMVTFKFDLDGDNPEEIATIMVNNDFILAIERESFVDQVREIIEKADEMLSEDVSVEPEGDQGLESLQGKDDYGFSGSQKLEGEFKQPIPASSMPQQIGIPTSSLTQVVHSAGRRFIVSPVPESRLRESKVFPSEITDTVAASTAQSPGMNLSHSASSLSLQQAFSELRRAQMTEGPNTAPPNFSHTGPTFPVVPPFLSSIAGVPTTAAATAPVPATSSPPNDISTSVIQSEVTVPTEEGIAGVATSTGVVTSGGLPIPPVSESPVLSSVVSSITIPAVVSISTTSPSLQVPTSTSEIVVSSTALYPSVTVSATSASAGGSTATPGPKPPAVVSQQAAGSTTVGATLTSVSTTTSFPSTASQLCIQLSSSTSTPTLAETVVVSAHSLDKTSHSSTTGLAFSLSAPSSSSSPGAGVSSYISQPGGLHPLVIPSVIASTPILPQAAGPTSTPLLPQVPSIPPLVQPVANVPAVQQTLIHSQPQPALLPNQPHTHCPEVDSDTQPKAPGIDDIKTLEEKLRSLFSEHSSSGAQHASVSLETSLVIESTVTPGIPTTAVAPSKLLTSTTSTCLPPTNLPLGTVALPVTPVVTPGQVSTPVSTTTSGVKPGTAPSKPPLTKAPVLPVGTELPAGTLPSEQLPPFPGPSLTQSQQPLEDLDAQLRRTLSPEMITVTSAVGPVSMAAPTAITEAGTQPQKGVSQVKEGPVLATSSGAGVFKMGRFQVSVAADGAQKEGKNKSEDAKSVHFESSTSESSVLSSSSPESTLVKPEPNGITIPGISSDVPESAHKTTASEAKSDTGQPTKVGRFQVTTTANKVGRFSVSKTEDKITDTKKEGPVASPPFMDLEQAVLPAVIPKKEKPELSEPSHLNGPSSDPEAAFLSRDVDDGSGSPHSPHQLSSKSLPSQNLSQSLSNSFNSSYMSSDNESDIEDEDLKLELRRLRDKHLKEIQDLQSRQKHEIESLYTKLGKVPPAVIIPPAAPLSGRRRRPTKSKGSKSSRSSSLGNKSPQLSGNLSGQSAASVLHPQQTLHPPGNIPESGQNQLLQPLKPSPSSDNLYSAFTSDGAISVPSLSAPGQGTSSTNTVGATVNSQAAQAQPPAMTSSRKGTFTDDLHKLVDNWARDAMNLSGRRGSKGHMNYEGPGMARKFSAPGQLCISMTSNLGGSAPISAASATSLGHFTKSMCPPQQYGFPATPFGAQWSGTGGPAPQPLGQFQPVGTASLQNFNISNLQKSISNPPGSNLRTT
Chain of EPHA6 (Q9UF33 23-1036, species assumed): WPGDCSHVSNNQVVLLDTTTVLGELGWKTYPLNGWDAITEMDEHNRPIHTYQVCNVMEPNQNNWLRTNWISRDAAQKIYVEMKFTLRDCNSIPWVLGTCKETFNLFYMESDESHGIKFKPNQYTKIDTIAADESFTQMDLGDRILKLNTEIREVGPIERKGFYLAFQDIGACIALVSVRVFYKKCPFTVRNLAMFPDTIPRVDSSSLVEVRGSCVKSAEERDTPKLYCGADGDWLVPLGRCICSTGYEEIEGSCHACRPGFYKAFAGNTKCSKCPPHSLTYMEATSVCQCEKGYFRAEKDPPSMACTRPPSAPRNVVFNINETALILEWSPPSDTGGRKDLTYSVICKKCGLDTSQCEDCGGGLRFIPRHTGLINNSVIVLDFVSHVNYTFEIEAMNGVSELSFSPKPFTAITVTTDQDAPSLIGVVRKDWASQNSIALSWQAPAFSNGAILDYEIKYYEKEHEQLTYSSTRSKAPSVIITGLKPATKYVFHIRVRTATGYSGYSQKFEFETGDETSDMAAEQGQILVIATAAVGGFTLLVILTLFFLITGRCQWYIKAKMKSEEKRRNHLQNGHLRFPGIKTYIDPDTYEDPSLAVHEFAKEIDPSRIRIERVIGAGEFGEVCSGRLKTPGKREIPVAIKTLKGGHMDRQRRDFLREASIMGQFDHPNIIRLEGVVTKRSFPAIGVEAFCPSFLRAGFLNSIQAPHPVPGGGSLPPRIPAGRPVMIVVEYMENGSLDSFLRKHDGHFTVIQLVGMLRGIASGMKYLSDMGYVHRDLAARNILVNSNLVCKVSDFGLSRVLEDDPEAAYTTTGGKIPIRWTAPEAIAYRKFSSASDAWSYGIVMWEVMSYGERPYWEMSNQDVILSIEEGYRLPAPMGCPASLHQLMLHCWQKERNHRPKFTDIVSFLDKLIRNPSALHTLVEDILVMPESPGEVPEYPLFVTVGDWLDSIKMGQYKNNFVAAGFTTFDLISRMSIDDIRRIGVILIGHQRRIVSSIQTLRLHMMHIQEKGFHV
Chain of GRK4 (P32298 whole entry, species assumed): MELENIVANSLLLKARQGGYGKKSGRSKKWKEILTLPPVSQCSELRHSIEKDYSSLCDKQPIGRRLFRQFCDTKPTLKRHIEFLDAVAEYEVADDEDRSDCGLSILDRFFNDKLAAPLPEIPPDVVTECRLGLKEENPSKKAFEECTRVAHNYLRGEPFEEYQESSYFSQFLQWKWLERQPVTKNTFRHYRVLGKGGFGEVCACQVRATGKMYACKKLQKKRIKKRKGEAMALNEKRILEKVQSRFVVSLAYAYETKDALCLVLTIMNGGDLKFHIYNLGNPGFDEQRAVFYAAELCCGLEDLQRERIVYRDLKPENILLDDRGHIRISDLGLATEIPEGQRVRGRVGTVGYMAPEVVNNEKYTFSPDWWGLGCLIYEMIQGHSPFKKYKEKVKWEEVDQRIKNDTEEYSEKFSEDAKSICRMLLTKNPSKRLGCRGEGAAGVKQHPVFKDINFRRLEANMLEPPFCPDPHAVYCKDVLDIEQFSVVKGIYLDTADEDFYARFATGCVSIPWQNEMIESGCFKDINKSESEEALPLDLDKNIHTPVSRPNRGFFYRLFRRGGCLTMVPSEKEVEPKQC
Chain of MLK3/MAP3K11 (Q16584 whole entry): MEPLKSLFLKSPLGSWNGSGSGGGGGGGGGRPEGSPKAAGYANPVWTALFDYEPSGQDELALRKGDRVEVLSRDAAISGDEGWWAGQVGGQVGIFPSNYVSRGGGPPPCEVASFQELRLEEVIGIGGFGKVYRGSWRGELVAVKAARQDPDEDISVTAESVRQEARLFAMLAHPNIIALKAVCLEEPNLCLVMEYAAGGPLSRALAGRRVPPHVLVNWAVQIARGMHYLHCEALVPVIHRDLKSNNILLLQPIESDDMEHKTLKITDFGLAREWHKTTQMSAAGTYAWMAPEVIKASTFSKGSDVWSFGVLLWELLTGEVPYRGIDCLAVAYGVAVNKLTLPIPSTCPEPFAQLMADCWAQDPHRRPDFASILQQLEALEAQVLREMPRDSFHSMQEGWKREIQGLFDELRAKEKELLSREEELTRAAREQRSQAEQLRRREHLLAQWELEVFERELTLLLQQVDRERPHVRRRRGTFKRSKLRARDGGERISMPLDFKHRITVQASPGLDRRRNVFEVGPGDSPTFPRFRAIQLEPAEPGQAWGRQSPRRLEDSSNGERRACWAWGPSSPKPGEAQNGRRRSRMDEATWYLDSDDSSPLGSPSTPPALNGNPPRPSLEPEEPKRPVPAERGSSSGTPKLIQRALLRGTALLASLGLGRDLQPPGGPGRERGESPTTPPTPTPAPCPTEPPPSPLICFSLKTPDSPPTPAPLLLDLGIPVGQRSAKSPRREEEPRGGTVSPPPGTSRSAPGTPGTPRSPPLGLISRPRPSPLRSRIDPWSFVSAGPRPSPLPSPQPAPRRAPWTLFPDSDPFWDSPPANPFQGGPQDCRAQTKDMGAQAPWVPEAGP
Chain of SSTK/TSSK6 (Q9BXA6 whole entry): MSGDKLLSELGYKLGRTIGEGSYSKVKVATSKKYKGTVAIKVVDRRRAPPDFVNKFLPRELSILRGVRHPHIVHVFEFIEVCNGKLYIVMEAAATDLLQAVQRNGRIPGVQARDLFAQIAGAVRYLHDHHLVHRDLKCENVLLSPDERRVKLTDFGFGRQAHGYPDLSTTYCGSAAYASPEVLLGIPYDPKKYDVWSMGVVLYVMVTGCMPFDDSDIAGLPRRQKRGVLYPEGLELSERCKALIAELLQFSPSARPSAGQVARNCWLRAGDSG

| Compound | remaining activity at 1 µM (ASK1/MAP3K5) | remaining activity at 1 µM (AURORA B) | remaining activity at 1 µM (BRSK2) | remaining activity at 1 µM (CDK1/CYCLIN A) | remaining activity at 1 µM (CDK2/CYCLIN A) | remaining activity at 1 µM (CDK3/CYCLIN E2) | remaining activity at 1 µM (CDK6/CYCLIN D3) | remaining activity at 1 µM (CDK9/CYCLIN K) | remaining activity at 1 µM (CDK9/CYCLIN T2) | remaining activity at 1 µM (CLK4) | remaining activity at 1 µM (DDR1) | remaining activity at 1 µM (DYRK1B) | remaining activity at 1 µM (EPHA6) | remaining activity at 1 µM (ERBB2/HER2) | remaining activity at 1 µM (GRK4) | remaining activity at 1 µM (HIPK2) | remaining activity at 1 µM (LYN B) | remaining activity at 1 µM (MARK1) | remaining activity at 1 µM (MLK3/MAP3K11) | remaining activity at 1 µM (OSR1/OXSR1) | also measured |
| --- | --- | --- | --- | --- | --- | --- | --- | --- | --- | --- | --- | --- | --- | --- | --- | --- | --- | --- | --- | --- | --- |
| Cc1cn(-c2cc(C(=O)Nc3ccc(C)c(N4Cc5cnc(NC6CC6)nc5C5(CC5)C4=O)c3)cc(C(F)(F)F)c2)cn1 [Compound 8, N-(3-(2'-(cyclopropylamino)-7'-oxo-5'H-spiro[cyclopropane-1,8'-pyrido[4,3-d]pyrimidine]-6'(7'H)-yl)-4-methylphenyl)-3-(4-methyl-1H-imidazol-1-yl)-5-(trifluoromethyl)benzamide] | > 40% | > 40% | > 40% | > 40% | > 40% | > 40% | > 40% | > 40% | > 40% | > 40% | ≤ 40% | > 40% | ≤ 40% | ≤ 40% | > 40% | > 40% | ≤ 40% | > 40% | ≤ 40% | > 40% | remaining activity at 1 µM (C-MER; C-MER): > 40%; remaining activity at 1 µM (C-MET; C-MET): > 40%; remaining activity at 1 µM (MYO3B; MYO3B): > 40%; remaining activity at 1 µM (PAK3): > 40%; remaining activity at 1 µM (PKCB2): > 40%; remaining activity at 1 µM (SGK3/SGKL): > 40%; remaining activity at 1 µM (SSTK/TSSK6): > 40%; remaining activity at 1 µM (STK38L/NDR2): > 40%; remaining activity at 1 µM (TIE2/TEK): ≤ 40%; remaining activity at 1 µM (TSSK2): > 40%; remaining activity at 1 µM (ULK1): > 40%; remaining activity at 1 µM (WNK1): > 40%; remaining activity at 1 µM (WNK2): > 40% |
| Cc1ccc(Nc2ncc3c(n2)C2(CC2)C(=O)N(c2cc(NC(=O)c4cccc(C(F)(F)F)c4)ccc2C)C3)cn1 [Compound 51, N-(4-methyl-3-(2'-((6-methylpyridin-3-yl)amino)-7'-oxo-5'H-spiro[cyclopropane-1,8'-pyrido[4,3-d]pyrimidine]-6'(7'H)-yl)phenyl)-3-(trifluoromethyl)benzamide] | > 40% | > 40% | > 40% | > 40% | > 40% | > 40% | > 40% | > 40% | > 40% | > 40% | ≤ 40% | > 40% | ≤ 40% | ≤ 40% | > 40% | > 40% | ≤ 40% | > 40% | ≤ 40% | > 40% | remaining activity at 1 µM (C-MER; c-MER): > 40%; remaining activity at 1 µM (C-MET; c-MET): > 40%; remaining activity at 1 µM (MYO3B; MYO3b): > 40%; remaining activity at 1 µM (PAK3): > 40%; remaining activity at 1 µM (PKCB2): > 40%; remaining activity at 1 µM (SGK3/SGKL): > 40%; remaining activity at 1 µM (SSTK/TSSK6): > 40%; remaining activity at 1 µM (STK38L/NDR2): > 40%; remaining activity at 1 µM (TIE2/TEK): ≤ 40%; remaining activity at 1 µM (TSSK2): > 40%; remaining activity at 1 µM (ULK1): > 40%; remaining activity at 1 µM (WNK1): > 40%; remaining activity at 1 µM (WNK2): > 40% |
